# From patent US4585755A, “Cyclic and bridged cyclic somatostatin analogs useful as local anti-inflammatory agents” (Merck & Co., Inc., priority 1985, dated 1986)
# Residues, ends and D or L forms follow the SMILES beside them.
# What was measured:
# [1] = tested on: growth hormone, insulin and glucogen secretion; assay: Potency relative to somatostatin (SRIF), based on inhibition of hormone secretion; conditions: somatostatin (SRIF) potency assigned a value of 1, based upon inhibition of growth hormone
# Method: Following the same procedure as described above for Assay 1, additional compounds were tested for local; i.e., topical, anti-inflammatory activity. […] In Table III, the potency of each compound tested relative to that of somatostatin is also shown, the somatostatin (SRIF) potency being assigned a value of 1 and based upon its inhibition of growth hormone, insulin and glucogen secretion.
# [2] = tested on: cellular proliferation (granuloma); assay: Assay 1: pellet granuloma assay, compound applied locally to implanted pellets; assay type: in vivo, rats (Charles River-CD); conditions: for Body Wt. Change / Net weight of Pellets: local on pellet, male rats, 7 days; for Net weight of Pellets: ± S.E. of mean, control 39 ± 2.7
# Method: The assay method employed to test the Formula I, II and III compounds as local anti-inflammatory agents is a modification of the method described by S. L. Steelman, et al. [Steroids, 1, 163 (1963)] as follows:
# (§1) Male rats (Charles River-CD) of about 150-160 grams in weight were subcutaneously implanted in the abdominal area with two pellets each. Five animals were used per group. The pellets used were preweighed and all used in a given assay were ±1 mg from one another. The compounds were dissolved in absolute ethanol and the indicated dose applied to each pellet in 0.2 ml. The alcohol was removed in vacuo overnight. Just prior to implantation, each pellet was moistened with 0.2 ml of 0.9% saline containing 1 mg each of penicillin and streptomycin. After seven days, the pellets were dissected out together with adhering granulomatous tissue. After drying in a vacuum oven overnight at 60°-65° C., the pellets were weighed. The difference in weight between the original pellet weight and the implanted pellet weight was used as a measure of cellular proliferation (granuloma). The lower the net weight, the more anti-inflammatory activity.
# The results obtained following the Assay Method described above are shown below in Table I wherein hydrocortisone was used as a positive control.
# [3] = tested on: cellular proliferation (granuloma); assay: Assay 2: pellet granuloma assay, compounds administered subcutaneously as saline injections; assay type: in vivo, rats (Charles River-CD); conditions: for Avg. Granuloma wt. / Avg. Adrenal wt. / Avg. Thymus wt. / Avg. body wt change: rats, 7 days, ± S.E. of mean; for Avg. Granuloma wt.: control 28 ± 3; for Avg. Adrenal wt.: control 44 ± 1; for Avg. Thymus wt.: control 552 ± 45; for Avg. body wt change: control +35 ± 2
# Method: as §1
# Following the procedure described above for Assay 1, additional tests were conducted except that the compounds were administered subcutaneously as saline injections. The tests were carried out on six animals per group and the results obtained are shown below in Table II.
# [4] = daily dose 200 mcg subcutaneous
compound,measurement,setting,value
"CC(C)[C@@H]1NC(=O)[C@H](CCCCN)NC(=O)[C@@H](Cc2c[nH]c3ccccc23)NC(=O)[C@H](Cc2ccc(O)cc2)NC(=O)[C@H](C)N(C)C(=O)[C@H](Cc2c[nH]c3ccccc23)NC1=O [9/I, Cyclo-(N-Me-Ala-Tyr-D-Trp-Lys-Val-Trp)] (HELM PEPTIDE1{K.V.W.[meA].Y.[dW]}$PEPTIDE1,PEPTIDE1,1:R1-6:R2$$$V2.0)",Potency Relative to Samatostatin (SRIF),[1],20-35
"CC(C)[C@@H]1NC(=O)[C@H](CCCCN)NC(=O)[C@H](Cc2c[nH]c3ccccc23)NC(=O)[C@H](Cc2ccc(O)cc2)NC(=O)[C@H](C)N(C)C(=O)[C@H](Cc2ccccc2)NC1=O [10/I, Cyclo-(N-Me-Ala-Tyr-L-Trp-Lys-Val-Phe)]",Potency Relative to Samatostatin (SRIF),[1],50
"C[C@@H]1NC(=O)[C@H](CO)NC(=O)[C@H](CCCCN)NC(=O)[C@@H](Cc2c[nH]c3ccccc23)NC(=O)[C@H](Cc2c[nH]cn2)NC(=O)[C@H](Cc2ccccc2)N(C)C1=O [11/I, Cyclo-(Ser-Ala-N-Me-Phe-His-D-Trp-Lys)] (HELM PEPTIDE1{A.[meF].H.[dW].K.S}$PEPTIDE1,PEPTIDE1,1:R1-6:R2$$$V2.0)",Potency Relative to Samatostatin (SRIF),[1],200
"C[C@@H](O)[C@@H]1NC(=O)[C@H](CCCCN)NC(=O)[C@@H](Cc2c[nH]c3ccccc23)NC(=O)[C@H](Cc2ccccc2)NC(=O)[C@@H]2CCCN2C(=O)[C@H](Cc2ccccc2)NC1=O [13/II, Cyclo-(Pro-Phe-D-Trp-Lys-Thr-Phe)] (HELM PEPTIDE1{P.F.[dW].K.T.F}$PEPTIDE1,PEPTIDE1,1:R1-6:R2$$$V2.0)",Potency Relative to Samatostatin (SRIF),[1],6
"CC(C)[C@@H]1NC(=O)[C@H](CCCCN)NC(=O)[C@@H](Cc2c[nH]c3ccccc23)NC(=O)[C@H](Cc2ccc(O)cc2)NC(=O)[C@H](C)N(C)C(=O)[C@H](Cc2ccccc2)NC1=O [Compound 8 of Formula I, Cyclo-(N-Me-Ala-Tyr-D-Trp-Lys-Val-Phe)]",Body Wt. Change,[2]; 10 mcg./pellet,+43 gm
same,Net weight of Pellets,[2]; 10 mcg./pellet,39 ± 2.9 mg
same,Body Wt. Change,[2]; 100 mcg./pellet,+40 gm
same,Net weight of Pellets,[2]; 100 mcg./pellet,30 ± 2.4 mg
same,anti-inflammatory activity (in words),"[2]; administered locally, i.e., topically",clearly exhibits anti-inflammatory activity
same,local anti-inflammatory activity (in words),[2]; doses of 100-200 micrograms per pellet,significant activity
same,Potency Relative to Samatostatin (SRIF),[1],50-100
same,effect on adrenal weight (in words),[3]; administered subcutaneously,slight decrease in the adrenal weight
same,anti-inflammatory activity (in words),[3]; administered subcutaneously at a total dose of 1.4 mg (0.2 mg×7),no anti-inflammatory activity
same,anti-inflammatory activity (in words),"[3]; administered systematically, i.e., subcutaneously",no anti-inflammatory activity
same,Avg. Granuloma wt.,[3]; daily dose 50 mcg subcutaneous,27 ± 3 mg
same,Avg. Adrenal wt.,[3]; daily dose 50 mcg subcutaneous,43 ± 2 mg
same,Avg. Thymus wt.,[3]; daily dose 50 mcg subcutaneous,576 ± 14 mg
same,Avg. body wt change,[3]; daily dose 50 mcg subcutaneous,+38 ± 3 gm
same,Avg. Granuloma wt.,[3]; [4],29 ± 2 mg
same,Avg. Adrenal wt.,[3]; [4],36 ± 2 mg
same,Avg. Thymus wt.,[3]; [4],571 ± 26 mg
same,Avg. body wt change,[3]; [4],+35 ± 2 gm
"C[C@]12CCC(=O)C=C1CC[C@@H]1[C@@H]2[C@@H](O)C[C@@]2(C)[C@H]1CC[C@]2(O)C(=O)CO [Hydrocortisone, reference compound]",Body Wt. Change,[2]; 200 mcg./pellet,+44 gm
same,Net weight of Pellets,[2]; 200 mcg./pellet,34 ± 2.5 mg
same,Body Wt. Change,[2]; 1000 mcg./pellet,+41 gm
same,Net weight of Pellets,[2]; 1000 mcg./pellet,29 ± 2.1 mg
same,activity of positive control (in words),[3]; administered subcutaneously,typical activity
same,Avg. Granuloma wt.,[3]; daily dose 1.0 mg subcutaneous,22 ± 1 mg
same,Avg. Adrenal wt.,[3]; daily dose 1.0 mg subcutaneous,36 ± 3 mg
same,Avg. Thymus wt.,[3]; daily dose 1.0 mg subcutaneous,201 ± 20 mg
same,Avg. body wt change,[3]; daily dose 1.0 mg subcutaneous,+22 ± 3 gm
same,Avg. Granuloma wt.,[3]; daily dose 4.0 mg subcutaneous,19 ± 1 mg
same,Avg. Adrenal wt.,[3]; daily dose 4.0 mg subcutaneous,23 ± 1 mg
same,Avg. Thymus wt.,[3]; daily dose 4.0 mg subcutaneous,41 ± 3 mg
same,Avg. body wt change,[3]; daily dose 4.0 mg subcutaneous,-17 ± 2 gm
